From patent publication US20080318943A1, “Compounds and Uses Thereof - 848” (ASTRAZENECA AB, priority 2007, published 2008)

Legend:
[1] = target: T1, GABAA2 receptors (α2, β3, γ2 receptor subunits transfected into Sf9 cells) (Homo sapiens, UniProt P18507+P47869); assay: GABAA2 Binding Method ([3H]-Flunitrazepam displacement); conditions: [3H]-Flunitrazepam ~2 nM, α2β3γ2 Sf9 membranes, 1 hr at 4° C.
T1 construct: host or cells: Sf9 cells (membranes)
Summary of the method: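 Displacement of [3H]-flunitrazepam (~2 nM in assay) from recombinant human α2β3γ2 receptors in Sf9 membranes; 1 h incubation at 4 °C, harvest by filtration. Values reported as percent of control, IC50 and Ki.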

GABAA receptor α1β2γ2 = target: T2, GABAA receptor α1β2γ2 (Homo sapiens, UniProt P14867+P18507); assay: Two-electrode voltage-clamp potentiation of GABA EC10 current in Xenopus oocytes, GABAA1; format: cell-based; conditions: percentage potentiation of GABA EC10 current divided by that of diazepam
T2 construct: expressed in transfected cells; host or cells: Xenopus laevis oocytes injected with cRNA
T2 sequence (P14867 28-456): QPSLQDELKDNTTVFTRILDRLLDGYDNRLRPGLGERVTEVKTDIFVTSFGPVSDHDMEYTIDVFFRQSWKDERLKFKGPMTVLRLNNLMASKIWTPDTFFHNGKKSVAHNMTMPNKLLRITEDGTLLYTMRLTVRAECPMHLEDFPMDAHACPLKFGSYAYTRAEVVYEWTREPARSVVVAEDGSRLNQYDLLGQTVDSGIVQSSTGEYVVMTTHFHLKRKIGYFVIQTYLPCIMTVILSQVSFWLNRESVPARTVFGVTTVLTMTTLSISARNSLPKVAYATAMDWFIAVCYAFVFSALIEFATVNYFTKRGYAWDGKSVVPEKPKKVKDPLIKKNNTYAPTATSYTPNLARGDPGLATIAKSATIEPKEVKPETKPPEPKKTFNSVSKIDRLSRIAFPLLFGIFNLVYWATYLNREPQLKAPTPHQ
T2 sequence (P47870 25-512 partner limits assumed): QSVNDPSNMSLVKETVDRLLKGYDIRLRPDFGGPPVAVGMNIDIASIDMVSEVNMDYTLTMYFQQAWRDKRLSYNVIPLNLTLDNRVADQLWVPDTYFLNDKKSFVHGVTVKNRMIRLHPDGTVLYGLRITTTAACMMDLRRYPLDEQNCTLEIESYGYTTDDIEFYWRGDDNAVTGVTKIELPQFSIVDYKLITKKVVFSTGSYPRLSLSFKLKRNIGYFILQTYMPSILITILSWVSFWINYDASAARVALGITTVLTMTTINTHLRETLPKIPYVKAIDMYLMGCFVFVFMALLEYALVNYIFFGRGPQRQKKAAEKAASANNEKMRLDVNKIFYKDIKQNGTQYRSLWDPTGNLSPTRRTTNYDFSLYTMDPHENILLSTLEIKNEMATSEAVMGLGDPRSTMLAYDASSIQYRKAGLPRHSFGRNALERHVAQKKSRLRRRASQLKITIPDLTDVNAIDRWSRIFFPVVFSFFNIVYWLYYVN
T2 sequence (P18507 40-475): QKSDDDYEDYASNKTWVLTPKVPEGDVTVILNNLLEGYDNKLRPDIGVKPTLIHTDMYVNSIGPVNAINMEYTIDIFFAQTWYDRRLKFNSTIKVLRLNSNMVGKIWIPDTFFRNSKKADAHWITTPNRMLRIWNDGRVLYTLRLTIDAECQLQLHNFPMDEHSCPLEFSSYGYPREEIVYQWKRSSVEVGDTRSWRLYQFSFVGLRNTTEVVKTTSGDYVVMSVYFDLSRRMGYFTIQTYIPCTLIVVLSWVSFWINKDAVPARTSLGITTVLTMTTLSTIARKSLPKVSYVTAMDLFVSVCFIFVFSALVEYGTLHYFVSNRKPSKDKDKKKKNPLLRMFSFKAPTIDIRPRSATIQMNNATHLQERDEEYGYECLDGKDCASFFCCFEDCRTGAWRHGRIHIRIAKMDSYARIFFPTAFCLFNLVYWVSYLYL
Summary of the method: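 Human GABAA receptors expressed in Xenopus oocytes by cRNA injection (α:β:γ molar ratio ~1:1:10 for α1β2γ2, 1:1:1 for α2β3γ2), recorded 2-10 days later by two-electrode voltage clamp at −60 mV in ND-96, pH 7.5. Modulator preapplied 30 s before GABA at per-oocyte EC10. Peak-current percent potentiation over GABA alone, normalised to diazepam.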

GABAA receptor α2β3γ2 = target: T3, GABAA receptor α2β3γ2 (Homo sapiens, UniProt P18507+P47869); assay: Two-electrode voltage-clamp potentiation of GABA EC10 current in Xenopus oocytes, GABAA2; format: cell-based; conditions: percentage potentiation of GABA EC10 current divided by that of diazepam
T3 construct: expressed in transfected cells; host or cells: Xenopus laevis oocytes injected with cRNA
T3 sequence (P47869 29-451): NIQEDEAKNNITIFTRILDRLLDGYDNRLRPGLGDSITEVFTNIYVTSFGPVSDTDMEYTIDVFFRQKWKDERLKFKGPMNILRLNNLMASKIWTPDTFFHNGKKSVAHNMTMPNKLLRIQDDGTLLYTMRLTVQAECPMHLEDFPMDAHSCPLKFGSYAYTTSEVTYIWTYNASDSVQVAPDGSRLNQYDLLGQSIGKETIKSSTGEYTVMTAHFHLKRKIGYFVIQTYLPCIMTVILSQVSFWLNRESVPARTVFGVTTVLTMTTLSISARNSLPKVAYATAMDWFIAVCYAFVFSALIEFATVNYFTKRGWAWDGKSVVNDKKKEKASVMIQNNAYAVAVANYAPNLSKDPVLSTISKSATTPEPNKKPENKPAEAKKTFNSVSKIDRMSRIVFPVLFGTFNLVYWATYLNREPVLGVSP
T3 sequence (P28472 26-473 partner): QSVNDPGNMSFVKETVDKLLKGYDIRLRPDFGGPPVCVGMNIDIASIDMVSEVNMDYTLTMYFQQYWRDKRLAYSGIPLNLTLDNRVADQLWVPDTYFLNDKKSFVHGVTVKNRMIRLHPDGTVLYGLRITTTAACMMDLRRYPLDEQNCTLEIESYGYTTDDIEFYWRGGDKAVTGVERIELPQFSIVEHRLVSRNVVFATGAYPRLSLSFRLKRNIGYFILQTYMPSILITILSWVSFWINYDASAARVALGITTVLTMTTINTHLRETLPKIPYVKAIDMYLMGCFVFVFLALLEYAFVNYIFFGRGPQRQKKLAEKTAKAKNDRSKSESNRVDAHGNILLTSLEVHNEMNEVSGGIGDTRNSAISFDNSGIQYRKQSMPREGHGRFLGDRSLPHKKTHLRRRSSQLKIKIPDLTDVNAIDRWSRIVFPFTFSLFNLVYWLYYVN
T3 sequence (P18507 40-475): as the sequence (P18507 40-475) above
Description: GABAA receptors were heterologously expressed in Xenopus oocytes by injecting cRNA corresponding to human α1, α2, α3, α5, β2, P3 and γ2 subunits of the GABAA receptor genes. The specific subunit combinations (subtypes) were as follows: α1β2γ2, α2β3γ2, α3β3γ2, and α5β3γ2. The EC10 of GABA is approximated for each cell. Stability of GABA-mediated (EC10) current is established. Modulatory effect of test compound is determined and compared across subtypes. […] Thus, the assay can characterize modulatory effects and determine subtype selectivity of test compounds on major subtypes of GABAA receptors.
Xenopus laevis frogs (Xenopus I, Kalamazoo, Mich.) were anesthetized using 0.15% tricaine. Surgically removed ovarian lobes were teased out in OR2 solution (82 NaCl, 2.5 KCl, 5 HEPES, 1.5 NaH2PO4, 1 MgCl2, 0.1 EDTA, in mM, pH 7.4). The oocytes were defolliculated by incubation in 25 mL OR2 containing 0.2% collagenase 1A (SIGMA) two times for about 60 minutes on a platform shaker and stored in Leibovitz's L-15 medium. Oocytes were injected the following day in 0.5× Leibovitz's L-15 medium containing […] gentamycin, 10 units/ml penicillin, and […] streptomycin.
Capped cRNAs from the linearized vectors containing human α1, β2 and γ2 subunits of the GABAA receptor genes were mixed in ratio of […]. Oocytes were injected with 25-50 nL of mixed RNA with an appx molar ratio for α1, β2, and γ2 as 1:1:10. Oocyte recordings were done 2-10 days after injection. The same methods apply to subtypes derived from α2β3γ2, α3β3γ2, and α5β3γ2, except for 1:1:1 ratio was used for α, β, and γ subunits.
All measurements were done in a medium containing ND-96 (96 NaCl, 2 KCl, 1.8 CaCl2.2H2O, 1 MgCl2.6H2O, 5 HEPES, in mM, pH 7.5). Two-electrode voltage-clamp recording was carried out using OpusXpress amplifier (Axon Instruments, Foster City, Calif.), which allows simultaneous recording from 8 oocytes. Oocytes were impaled with two electrodes of 1-2 MΩ tip resistance when filled with 3M KCl. Recordings were begun when membrane potential became stable at potentials negative to −50-−60 mV. Membrane potential was held at −60 mV. […] The concentration of GABA corresponded to the EC10 value calculated for each oocyte. The modulator pulses started 30 s before the GABA pulse so as to allow preincubation with the modulator. A set of 3 pulses with just GABA without modulator was given prior to the modulator-containing pulses to define the baseline GABA response. Two oocytes per each experiment were dedicated to observe the effect of diazepam on GABA response to ensure the presence of γ2 subunit in the GABAA pentameric complex, which imparts diazepam sensitivity to the complex.
Current amplitude (i) was measured from baseline to peak using Clampfit (Axon Inst., Foster City, Calif.). Potentiation was calculated as percent change from the baseline GABA current flux 100×(imod/icontrol)−1) where imod=current mediated by modulator+GABA and icontrol=current mediated by GABA alone. […] Similarly, a value of −50% potentiation means the presence of modulator caused a 50% decrease in the control current. Various other data shown here were fitted and plotted using GraphPad Prism (GraphPad Software, Inc. San Diego, Calif.). The percentage potentiation was converted to relative potentiation by dividing it with percentage potentiation value obtained from the same assay with diazepam as a control.

T1 sequence (P47869 29-451): as the sequence (P47869 29-451) above
T1 sequence (P28472 26-473 partner): as the sequence (P28472 26-473 partner) above
T1 sequence (P18507 40-475): as the sequence (P18507 40-475) above

SMILES	Ki [1] [nM]	Relative Potentiation for GABAA1 (GABAA receptor α1β2γ2)	Relative Potentiation for GABAA2 (GABAA receptor α2β3γ2)	Relative Potentiation for GABAA1 (GABAA receptor α1β2γ2; listed as 9-amino-2-cyclobutyl-5-(2,4-dimethoxypyrimidin-5-yl)-2,3-dihydro-1H-pyrrolo[3,4-)
COc1cc(C)c(-c2c(F)ccc3c(N)c4c(nc23)CN(C2CCC2)C4=O)cn1 [9-Amino-2-cyclobutyl-6-fluoro-5-(6-methoxy-4-methylpyridin-3-yl)-2,3-dihydropyrrolo[3,4-b]quinolin-1-one]	3.04	0.065	0.17	–
COc1ncc(-c2cccc3c(N)c4c(nc23)CN(C2CCC2)C4=O)c(OC)n1 [Example 123, 9-Amino-2-cyclobutyl-5-(2,4-dimethoxypyrimidin-5-yl)-2,3-dihydropyrrolo[3,4-b]quinolin-1-one]	4.23	0.13	0.44	0.12
CCCN1Cc2nc3c(-c4ccc(OC)nc4OC)c(F)ccc3c(N)c2C1=O [Example 24, 9-Amino-5-(2,6-dimethoxypyridin-3-yl)-6-fluoro-2-propyl-2,3-dihydropyrrolo[3,4-b]quinolin-1-one]	2.94	0.15	0.35	–
COc1ccc(F)c(-c2c(F)ccc3c(N)c4c(nc23)CN(C2CC2)C4=O)c1 [9-Amino-2-cyclopropyl-6-fluoro-5-(2-fluoro-5-methoxyphenyl)-2,3-dihydropyrrolo[3,4-b]quinolin-1-one]	7.54	0.002	0.15	–
CCCN1Cc2nc3c(-c4cc(Cl)ccc4Cl)cccc3c(N)c2C1=O [9-amino-5-(2,5-dichlorophenyl)-2-propyl-2,3-dihydro-1H-pyrrolo[3,4-b]quinolin-1-one]	11.8	0.31	0.32	–
COc1cccc(-c2c(F)ccc3c(N)c4c(nc23)CN(C2CC2)C4=O)c1F [9-Amino-2-cyclopropyl-6-fluoro-5-(2-fluoro-3-methoxyphenyl)-2,3-dihydropyrrolo[3,4-b]quinolin-1-one]	2.68	0.032	0.13	–
Cc1cc(-c2cccc3c(N)c4c(nc23)CN(C2CCC2)C4=O)cnc1F [9-Amino-2-cyclobutyl-5-(6-fluoro-5-methylpyridin-3-yl)-2,3-dihydropyrrolo[3,4-b]quinolin-1-one]	8.54	0.018	0.2	–
COc1cccc(-c2cccc3c(N)c4c(nc23)CN(C2CCC2)C4=O)c1C#N [2-(9-Amino-2-cyclobutyl-1-oxo-2,3-dihydro-1H-pyrrolo[3,4-b]quinolin-5-yl)-6-methoxybenzonitrile]	0.905	−0.016	0.18	–
CCCN1Cc2nc3c(-c4cnc(OC)cc4C)cccc3c(N)c2C1=O [Example 12, 9-Amino-5-(6-methoxy-4-methylpyridin-3-yl)-2-propyl-2,3-dihydropyrrolo[3,4-b]quinolin-1-one]	50.6	0.17	0.23	–
COc1ccc(-c2cccc3c(N)c4c(nc23)CN(C2CCC2)C4=O)cn1 [9-Amino-2-cyclobutyl-5-(6-methoxypyridin-3-yl)-2,3-dihydropyrrolo[3,4-b]quinolin-1-one]	6.48	−0.035	0.14	–
N#Cc1ccccc1-c1cccc2c(N)c3c(nc12)CN(C1CCCC1)C3=O [2-(9-Amino-2-cyclopentyl-1-oxo-2,3-dihydro-1H-pyrrolo[3,4-b]quinolin-5-yl)-benzonitrile]	5.75	0.062	0.27	–
CCCN1Cc2nc3c(-c4ccc(C)nc4)cccc3c(N)c2C1=O [Example 10, 9-Amino-5-(6-methylpyridin-3-yl)-2-propyl-2,3-dihydropyrrolo[3,4-b]quinolin-1-one]	92.2	0.092	0.19	–
CCN1Cc2nc3c(-c4ccc(OC)cc4F)c(F)ccc3c(N)c2C1=O [9-amino-2-ethyl-6-fluoro-5-(2-fluoro-4-methoxyphenyl)-2,3-dihydro-1H-pyrrolo[3,4-b]quinolin-1-one]	1.49	−0.04	0.05	–
Cc1ccncc1-c1cccc2c(N)c3c(nc12)CN(C1CCC1)C3=O [9-Amino-2-cyclobutyl-5-(4-methylpyridin-3-yl)-2,3-dihydropyrrolo[3,4-b]quinolin-1-one]	1.1	0.017	0.13	–
Cn1cc(-c2cccc3c(N)c4c(nc23)CN(C2CCC2)C4=O)cn1 [9-Amino-2-cyclobutyl-5-(1-methyl-1H-pyrazol-4-yl)-2,3-dihydropyrrolo[3,4-b]quinolin-1-one]	3.76	0.01	0.18	–
COc1ccc(CN2Cc3nc4c(-c5ccc(C)nc5Cl)cccc4c(N)c3C2=O)cc1OC [Example 23, 9-Amino-5-(2-chloro-6-methylpyridin-3-yl)-2-(3,4-dimethoxybenzyl)-2,3-dihydropyrrolo[3,4-b]quinolin-1-one]	4.36	0.11	0.34	–
COc1nnccc1-c1cccc2c(N)c3c(nc12)CN(C1CCC1)C3=O [9-Amino-2-cyclobutyl-5-(3-methoxypyridazin-4-yl)-2,3-dihydropyrrolo[3,4-b]quinolin-1-one]	4.73	0.082	0.43	–
COc1ccc(-c2cccc3c(N)c4c(nc23)CN(C)C4=O)c(OC)n1 [9-Amino-5-(2,6-dimethoxypyridin-3-yl)-2-methyl-2,3-dihydropyrrolo[3,4-b]quinolin-1-one]	290	–	0.19	–
CCN1Cc2nc3c(-c4ccc(OC)nc4OC)cccc3c(N)c2C1=O [Example 27, 9-Amino-5-(2,6-dimethoxypyridin-3-yl)-2-ethyl-2,3-dihydropyrrolo[3,4-b]quinolin-1-one]	50.1	–	0.18	–
COc1cccc(C#N)c1-c1cccc2c(N)c3c(nc12)CN(C1CC1)C3=O [Example 139, 2-(9-Amino-2-cyclopropyl-1-oxo-2,3-dihydro-1H-pyrrolo[3,4-b]quinolin-5-yl)-3-methoxybenzonitrile]	–	−0.078	0.15	–
CCCN1Cc2nc3c(-c4cccnc4)cccc3c(N)c2C1=O [Example 40, 9-Amino-2-propyl-5-pyridin-3-yl-2,3-dihydropyrrolo[3,4-b]quinolin-1-one]	46.5	–	0.27	–
